US5916881A, “High trehalose content syrup” (Kabushiki Kaisha Hayashibara Seibutsu Kagaku Kenkyujo, priority 1996, dated 1999)
“Also recorded” adds a separate entry of the source. Blank lines part the entries; values can stand above or below the compound they belong to.

Legend:
[1] = Influence of the concentrations of trehalose and of mono-/diglucosyltrehalose on trehalose crystallization (Experiment 3); assay type: physicochemical; design: key to Formation of trehalose crystal: "+" means that it crystallized; "-" means that it did not
Procedure: The trehalose crystallization inhibitory effect was experimented by dissolving trehalose under heating conditions in water in an amount of 1.5, 2.0, 2.5, 2.8 or 3.3-times the water solubility at 10° C., dissolving in the solution other oligosaccharides having a trehalose structure within their molecules in an amount of 10, 30 or 60% to the trehalose, d.s.b, and allowing the resultant solution to stand at a relatively-low temperature.
Based on the results in Experiment 1, 1.5, 2.0, 2.5, 2.8 and 3.3-times the water solubility of trehalose in 100 parts by weight of water at 10° C. water corresponded to 83, 111, 138, 155 and 182 parts by weight of trehalose anhydride, d.s.b., respectively With this relationship, testing solutions with the composition as shown in Table 3 were prepared by dissolving under heating conditions in a respective glass beaker 100 parts by weight of water, trehalose in a prescribed part by weight, and either monoglucosyltrehalose, i.e., α-glucosyltrehalose or diglucosyltrehalose, i.e., α-maltosyltrehalose in a prescribed ratio, allowing the solution to stand in a thermostatic place kept at 5, 10 or 15° C. for checking the trehalose crystallization inhibitory effect.

[2] = Trehalose crystallization inhibitory effect of coexisting saccharides in a trehalose syrup over the water solubility (Experiment 2); assay type: physicochemical; conditions: trehalose dissolved in an amount over the water solubility; summary of Table 2
Procedure: Trehalose was dissolved by heating in water in an amount of 1.5-times the water solubility at 10° C., and the trehalose solution was allowed to stand at a relatively-cold place for checking the trehalose crystallization inhibitory effect by saccharides. […] With this relationship, testing solutions were prepared by dissolving by heating in 100 parts by weight of water in a respective glass beaker 83 parts by weight of trehalose, and a saccharide in an amount of 10% to the trehalose, i.e., 8.3 parts by weight of the saccharide selected from the group consisting of glucose, maltose, isomaltose, lactose, maltotriose, panose, maltotetraose, sorbitol, maltitol, maltotriitol, sucrose, raffinose, erlose, saccharides such as α-glucosyltrehalose or monoglucosyltrehalose, α-maltosyltrehalose or diglucosyltrehalose, and α-maltotriosyltrehalose or triglucosyltrehalose as disclosed in Japanese Patent Kokai No.143,876/95 by the present applicant; a saccharide such as α-isomaltosyl-α-glucoside or monoglucosyltrehalose as disclosed in Japanese Patent Kokai No.217,784/96 by the same applicant; and a saccharide such as α-maltosyl-α-maltoside or diglucosyltrehalose as disclosed in Japanese Patent Application No.167,486/94 by the same applicant. Each solution was allowed to stand in a thermostatic place kept at 5, 10 or 15° C. for one week, followed by macroscopically observing the presence of trehalose crystal for evaluating the trehalose crystallization inhibitory effect by the saccharides.

Formation of trehalose crystal ([1]; water 100, trehalose 83, coexisting saccharide 8.3 parts by weight, 5° C. (1.7-times solubility)): -
Formation of trehalose crystal ([1]; water 100, trehalose 83, coexisting saccharide 8.3 parts by weight, 10° C. (1.5-times solubility)): -
Formation of trehalose crystal ([1]; water 100, trehalose 83, coexisting saccharide 8.3 parts by weight, 15° C. (1.3-times solubility)): -
Formation of trehalose crystal ([1]; water 100, trehalose 83, coexisting saccharide 25 parts by weight, 5° C. (1.7-times solubility)): -
Formation of trehalose crystal ([1]; water 100, trehalose 83, coexisting saccharide 25 parts by weight, 10° C. (1.5-times solubility)): -
Formation of trehalose crystal ([1]; water 100, trehalose 83, coexisting saccharide 25 parts by weight, 15° C. (1.3-times solubility)): -
Formation of trehalose crystal ([1]; water 100, trehalose 83, coexisting saccharide 50 parts by weight, 5° C. (1.7-times solubility)): -
Formation of trehalose crystal ([1]; water 100, trehalose 83, coexisting saccharide 50 parts by weight, 10° C. (1.5-times solubility)): -
Formation of trehalose crystal ([1]; water 100, trehalose 83, coexisting saccharide 50 parts by weight, 15° C. (1.3-times solubility)): -
Formation of trehalose crystal ([1]; water 100, trehalose 111, coexisting saccharide 11 parts by weight, 5° C. (2.2-times solubility)): +
Formation of trehalose crystal ([1]; water 100, trehalose 111, coexisting saccharide 11 parts by weight, 10° C. (2.0-times solubility)): -
Formation of trehalose crystal ([1]; water 100, trehalose 111, coexisting saccharide 11 parts by weight, 15° C. (1.8-times solubility)): -
Formation of trehalose crystal ([1]; water 100, trehalose 111, coexisting saccharide 33 parts by weight, 5° C. (2.2-times solubility)): -
Formation of trehalose crystal ([1]; water 100, trehalose 111, coexisting saccharide 33 parts by weight, 10° C. (2.0-times solubility)): -
Formation of trehalose crystal ([1]; water 100, trehalose 111, coexisting saccharide 33 parts by weight, 15° C. (1.8-times solubility)): -
Formation of trehalose crystal ([1]; water 100, trehalose 111, coexisting saccharide 66 parts by weight, 5° C. (2.2-times solubility)): -
Formation of trehalose crystal ([1]; water 100, trehalose 111, coexisting saccharide 66 parts by weight, 10° C. (2.0-times solubility)): -
Formation of trehalose crystal ([1]; water 100, trehalose 111, coexisting saccharide 66 parts by weight, 15° C. (1.8-times solubility)): -
Formation of trehalose crystal ([1]; water 100, trehalose 138, coexisting saccharide 14 parts by weight, 5° C. (2.8-times solubility)): +
Formation of trehalose crystal ([1]; water 100, trehalose 138, coexisting saccharide 14 parts by weight, 10° C. (2.5-times solubility)): +
Formation of trehalose crystal ([1]; water 100, trehalose 138, coexisting saccharide 14 parts by weight, 15° C. (2.2-times solubility)): -
Formation of trehalose crystal ([1]; water 100, trehalose 138, coexisting saccharide 42 parts by weight, 5° C. (2.8-times solubility)): +
Formation of trehalose crystal ([1]; water 100, trehalose 138, coexisting saccharide 42 parts by weight, 10° C. (2.5-times solubility)): +
Formation of trehalose crystal ([1]; water 100, trehalose 138, coexisting saccharide 42 parts by weight, 15° C. (2.2-times solubility)): -
Formation of trehalose crystal ([1]; water 100, trehalose 138, coexisting saccharide 83 parts by weight, 5° C. (2.8-times solubility)): +
Formation of trehalose crystal ([1]; water 100, trehalose 138, coexisting saccharide 83 parts by weight, 10° C. (2.5-times solubility)): +
Formation of trehalose crystal ([1]; water 100, trehalose 138, coexisting saccharide 83 parts by weight, 15° C. (2.2-times solubility)): -
Formation of trehalose crystal ([1]; water 100, trehalose 155, coexisting saccharide 16 parts by weight, 5° C. (3.1-times solubility)): +
Formation of trehalose crystal ([1]; water 100, trehalose 155, coexisting saccharide 16 parts by weight, 10° C. (2.8-times solubility)): +
Formation of trehalose crystal ([1]; water 100, trehalose 155, coexisting saccharide 16 parts by weight, 15° C. (2.5-times solubility)): +
Formation of trehalose crystal ([1]; water 100, trehalose 155, coexisting saccharide 46 parts by weight, 5° C. (3.1-times solubility)): +
Formation of trehalose crystal ([1]; water 100, trehalose 155, coexisting saccharide 46 parts by weight, 10° C. (2.8-times solubility)): +
Formation of trehalose crystal ([1]; water 100, trehalose 155, coexisting saccharide 46 parts by weight, 15° C. (2.5-times solubility)): +
Formation of trehalose crystal ([1]; water 100, trehalose 155, coexisting saccharide 93 parts by weight, 5° C. (3.1-times solubility)): +
Formation of trehalose crystal ([1]; water 100, trehalose 155, coexisting saccharide 93 parts by weight, 10° C. (2.8-times solubility)): +
Formation of trehalose crystal ([1]; water 100, trehalose 155, coexisting saccharide 93 parts by weight, 15° C. (2.5-times solubility)): +
Formation of trehalose crystal ([1]; water 100, trehalose 182, coexisting saccharide 18 parts by weight, 5° C. (3.7-times solubility)): +
Formation of trehalose crystal ([1]; water 100, trehalose 182, coexisting saccharide 18 parts by weight, 10° C. (3.3-times solubility)): +
Formation of trehalose crystal ([1]; water 100, trehalose 182, coexisting saccharide 18 parts by weight, 15° C. (3.0-times solubility)): +
Formation of trehalose crystal ([1]; water 100, trehalose 182, coexisting saccharide 55 parts by weight, 5° C. (3.7-times solubility)): +
Formation of trehalose crystal ([1]; water 100, trehalose 182, coexisting saccharide 55 parts by weight, 10° C. (3.3-times solubility)): +
Formation of trehalose crystal ([1]; water 100, trehalose 182, coexisting saccharide 55 parts by weight, 15° C. (3.0-times solubility)): +
Formation of trehalose crystal ([1]; water 100, trehalose 182, coexisting saccharide 110 parts by weight, 5° C. (3.7-times solubility)): +
Formation of trehalose crystal ([1]; water 100, trehalose 182, coexisting saccharide 110 parts by weight, 10° C. (3.3-times solubility)): +
Formation of trehalose crystal ([1]; water 100, trehalose 182, coexisting saccharide 110 parts by weight, 15° C. (3.0-times solubility)): +
Trehalose crystallization inhibitory effect (in words) [2]: specifically and effectively inhibited
SMILES: OC[C@H]1O[C@H](O[C@H]2O[C@H](CO)[C@@H](O[C@H]3O[C@H](CO)[C@@H](O)[C@H](O)[C@H]3O)[C@H](O)[C@H]2O)[C@H](O)[C@@H](O)[C@@H]1O [α-Glycosyltrehalose, α-glucosyltrehalose]
Trehalose crystallization inhibitory effect (in words) ([1]; summary of Table 3): satisfactory trehalose crystallization inhibitory effect

Trehalose crystallization inhibitory effect (in words) [2]: specifically and effectively inhibited
SMILES: OC[C@H]1O[C@H](OC[C@H]2O[C@H](O[C@H]3O[C@H](CO)[C@@H](O)[C@H](O)[C@H]3O)[C@H](O)[C@@H](O)[C@@H]2O)[C@H](O)[C@@H](O)[C@@H]1O [α-Isomaltosyl-α-glucoside, α-isomaltosyl-α-glucoside]

Trehalose crystallization inhibitory effect (in words) [2]: specifically and effectively inhibited
SMILES: OC[C@H]1O[C@H](O[C@H]2[C@H](O)[C@@H](O)[C@@H](O[C@H]3O[C@H](CO)[C@@H](O[C@H]4O[C@H](CO)[C@@H](O)[C@H](O)[C@H]4O)[C@H](O)[C@H]3O)O[C@@H]2CO)[C@H](O)[C@@H](O)[C@@H]1O [α-Maltosyl-α-maltoside, α-maltosyl-α-maltoside]

SMILES: OC[C@H]1O[C@H](O[C@H]2O[C@H](CO)[C@@H](O[C@H]3O[C@H](CO)[C@@H](O[C@H]4O[C@H](CO)[C@@H](O[C@H]5O[C@H](CO)[C@@H](O)[C@H](O)[C@H]5O)[C@H](O)[C@H]4O)[C@H](O)[C@H]3O)[C@H](O)[C@H]2O)[C@H](O)[C@@H](O)[C@@H]1O [α-Maltotriosyltrehalose, α-maltotriosyltrehalose]
Trehalose crystallization inhibitory effect (in words) [2]: specifically and effectively inhibited; also recorded: relatively-low trehalose crystallization inhibitory effect
